From publication PMC10295794, “Pharmacokinetic Analysis of Zonarol, a Marine Algal Hydroquinone, in Mice Using HPLC with Fluorescence Detection” (Antibiotics, 2023)
Read-outs that look alike come from different tables or passages of the source. One block for each molecule: values may come before it.

How the values were obtained:
[1] = cited from earlier work
[2] = cited from earlier work; remark: listed apart in the source
[3] = tested on: carrageenan-induced paw edema; design: method as in PMID 25409433; settings: mice, oral bolus 62.5 mg/kg at −0.5 h; edema at 2 and 4 h after carrageenan; cited from earlier work
[4] = tested on: diet-induced NAFLD; design: method as in PMID 34684455; settings: mice, oral 10 mg/kg/day for 2 weeks; cited from earlier work
[5] = tested on: DSS-induced ulcerative colitis; design: method as in PMID 25409433; settings: mice, oral 10 mg/kg/day for 2 weeks; cited from earlier work
[6] = Plasma concentration of zonarol after oral or intravenous administration in mice (HPLC-FI, non-compartmental analysis); assay type: in vivo; settings: for time within which plasma concentration remained over the LOQ: LOQ 11.1 ng/mL
Protocol: (§1) HPLC analysis was carried out on a Shimadzu-20A series instrument (Shimadzu, Japan) connected to a fluorescence detector (RF-10A xl, Shimadzu, Japan). The signals from the fluorescence system were transmitted to LC Solution software for the purposes of analyzing and calculating the peak areas. Chromatographic separation was carried out on an RPAQUEOUS-AR-5 (4.6 × 250 mm) column. The HPLC was operated with a gradient mobile phase system consisting of water containing 0.1% formic acid (phase A) and methanol (phase B) at a flow rate of 1 mL/min. The pump was programmed as follows: phase B was maintained at 40% for the first 5 min, increased from 40% to 80% within the next 25 min, maintained at 80% for the next 10 min, increased to 100% for 10 min, and then decreased back to 40% for 10 min (total gradient time: 60 min). A 50 μL sample was injected into the system with the auto-sampler and conditioned at 4 °C, and the column temperature was maintained at 30 °C.
Male ddY mice (8 weeks old, 40 ± 2 g) were purchased from SLC Inc. (Shizuoka, Japan) and were acclimated to laboratory conditions for 1 week before experiment. The mice were housed in an air-conditioned room at 23 ± 2 °C with 12 h/12 h light–dark illumination cycles at a constant humidity (55 ± 10%) with free access to food (MR stock, Nosan, Japan) and tap water. Exsanguination and autopsy were performed under anesthesia with an overdose of isoflurane (Mylan EPD Ltd., Canonsburg, PA, USA). All procedures were reviewed and approved (R3-9 and R4-2) in terms of animal welfare by the Animal Ethics Committee of Tokyo University of Marine Science and Technology.
The mice were fasted for 12 h before the oral administration of zonarol. Blood samples were collected from the mouse tails at 15, 30, 45, 60, 90, 120, 240, and 480 min after the oral administration of 100 mg/kg of zonarol (n = 5).
The mice were not fasted before the intravenous administration of zonarol but were fasted after the test started. Blood samples were collected from the mouse tails, via the caudal veins, at 5, 15, 30, 45, 60, 90, 120, and 240 min after the intravenous administration of 10 mg/kg of zonarol (n = 6).
Blood samples were immediately centrifuged at 9000 rpm for 5 min. After centrifugation, a 20 μL aliquot of plasma was mixed with 80 μL of MeCN for deproteinization. Then, the mixture was centrifuged at 9000 rpm for 5 min, and the supernatant was used for HPLC analysis.
Data were expressed as the mean ± standard deviation (SD) for the in vitro and the animal experiments. The number of the data is described for each experiment. The pharmacokinetic parameters were calculated with Phoenix Winnonlin software (version 8.1) while using a non-compartmental model. The abnormal data were eliminated after being analyzed via a Box-type drawing with SPSS software (SPSS Inc., Chicago, IL, USA).

[7] = Stability of zonarol with mice plasma during HPLC analysis; assay type: in vitro ADME
Protocol: as §1
The stability of low, medium, and high concentrations of 20, 80, and 320 ng/mL of zonarol mixed with the plasma of mice was performed under different conditions, including storage at room temperature for 4 h, storage at 37 °C for 4 h, and storage at 4 °C for 12 h and subjection to three freeze–thaw cycles. Next, 20 μL aliquots of low, medium, and high concentration zonarol solutions ([…]) were added to polypropylene tubes with 80 μL of blank plasma. Then, 900 μL of MeCN was added to the mixture, after being incubated under the different conditions described above, for deproteinization. The final nominal concentrations of zonarol were 20, 80, and 320 ng/mL. After deproteinization, the mixtures were centrifuged at […] for 5 min, and the supernatants were used for HPLC analysis. The accuracy of the assay was determined by comparing the nominal concentrations with the corresponding calculated concentrations via linear regression. Every concentration of zonarol was measured three times.

[8] = Tissue distribution of zonarol after intravenous administration in mice; assay type: in vivo; settings: for concentration at 30 min / concentration at 15 min: mouse, iv, 10 mg/kg; for concentration at 30 min: brain; for concentration at 15 min: 15 min after administration
Protocol: as §1
Blank tissue homogenates were prepared by collecting the liver, kidney, and brain from normal mice after anesthetization. Blank tissue homogenates were used to determine the specificity of zonarol. In the experimental mice, the livers, kidneys, and brains were collected at 15, 30, 60, 120 min after the intravenous administration, via the caudal veins, of 10 mg/kg of zonarol (n = 7). The tissue with added distilled water (mass/volume = 1:4) was homogenized.
Next, a 50 μL of tissue homogenate was mixed with 200 μL of MeCN for deproteinization. Then, the mixture was centrifuged at 9000 rpm for 5 min, and the supernatant was used for HPLC analysis.

[9] = tested on: carrageenan-induced paw edema; assay: Carrageenan-induced paw edema in mice after oral bolus zonarol; assay type: in vivo; settings: estimated from current p.o. 100 mg/kg plasma data and earlier 62.5 mg/kg edema result (ref 16)
[10] = male, ddY, mouse, plasma, po, p.o. 100 mg/kg, n = 5, mean ± SD
[11] = storage at 4 °C for 12 h, prepared 20 ng/mL
[12] = storage at 4 °C for 12 h, prepared 80 ng/mL
[13] = storage at 4 °C for 12 h, prepared 320 ng/mL
[14] = storage at 37 °C for 4 h, prepared 20 ng/mL
[15] = storage at 37 °C for 4 h, prepared 80 ng/mL
[16] = storage at 37 °C for 4 h, prepared 320 ng/mL
[17] = storage at RT for 4 h, prepared 20 ng/mL
[18] = storage at RT for 4 h, prepared 80 ng/mL
[19] = storage at RT for 4 h, prepared 320 ng/mL
[20] = three cycles of freeze-thaw, prepared 20 ng/mL
[21] = three cycles of freeze-thaw, prepared 80 ng/mL
[22] = three cycles of freeze-thaw, prepared 320 ng/mL

Molecule: O=c1c(O)c(-c2ccc(O)c(O)c2)oc2cc(O)cc(O)c12 [quercetin]
accumulation in the brain ([1]; 0.1%-quercetin-containing diet for 11 weeks): did not induce the accumulation | absolute bioavailability ([2]; variability depended on gastric contents during ingestion): 16%

Molecule: fucoxanthin
passage through the BBB ([1]; due to hydrophobic properties): pass through the BBB | bioavailability [2]: 0.06%

time within which plasma concentration remained over the LOQ ([6]; i.v. 10 mg/kg): ≤ 240 min | AUC(0-t) ([6]; male, ddY, mouse, plasma, iv, i.v. 10 mg/kg, 0 to 240 min, n = 6, mean ± SD, read-out: AUC (AUC0-240) (converted)): 608 ng·h/mL | concentration at 5 min ([6]; male, ddY, mouse, plasma, iv, i.v. 10 mg/kg, 5 min): 878 ± 371 ng/mL | bioavailability ([6]; male, ddY, mouse, plasma, oral, (p.o. AUC/p.o. dose)/(i.v. AUC/i.v. dose) × 100, p.o. 100 mg/kg, i.v. 10 mg/kg): 25% | AUC(0-t) ([6]; male, ddY, mouse, plasma, po, p.o. 100 mg/kg, 0 to 480 min, n = 5, mean ± SD, read-out: AUC (AUC0-480) (converted)): 1520 ng·h/mL | Cmax [6, 10]: 723 ± 75.9 ng/mL | Tmax [6, 10]: 1.25 h | time within which plasma concentration remained over the LOQ ([6]; p.o. 100 mg/kg): ≤ 480 min | accuracy of each group (plasma stability) ([7]; all storage conditions and concentrations of Table 2): 90.8–112.9% | Accuracy (detected/prepared × 100) [7, 11]: 104.9% | Zonarol detected in plasma [7, 11]: 21.0 ± 1.33 ng/mL | Accuracy (detected/prepared × 100) [7, 12]: 92.3% | Zonarol detected in plasma [7, 12]: 73.8 ± 1.98 ng/mL | Accuracy (detected/prepared × 100) [7, 13]: 104.4% | Zonarol detected in plasma [7, 13]: 334.2 ± 10.70 ng/mL | Accuracy (detected/prepared × 100) [7, 14]: 105.8% | Zonarol detected in plasma [7, 14]: 21.2 ± 0.33 ng/mL | Accuracy (detected/prepared × 100) [7, 15]: 90.8% | Zonarol detected in plasma [7, 15]: 72.6 ± 0.53 ng/mL | Accuracy (detected/prepared × 100) [7, 16]: 95.2% | Zonarol detected in plasma [7, 16]: 304.6 ± 6.57 ng/mL | Accuracy (detected/prepared × 100) [7, 17]: 112.9% | Zonarol detected in plasma [7, 17]: 22.6 ± 1.24 ng/mL | Accuracy (detected/prepared × 100) [7, 18]: 91.2% | Zonarol detected in plasma [7, 18]: 73.0 ± 1.72 ng/mL | Accuracy (detected/prepared × 100) [7, 19]: 97.2% | Zonarol detected in plasma [7, 19]: 311.1 ± 2.76 ng/mL | time zonarol remained stable in plasma ([7]; stored at 4 °C): at least 12 h | change of zonarol content in plasma ([7]; stored at RT or 37 °C for 4 h): did not change | Accuracy (detected/prepared × 100) [7, 20]: 107.9% | Zonarol detected in plasma [7, 20]: 21.6 ± 1.44 ng/mL | Accuracy (detected/prepared × 100) [7, 21]: 94.4% | Zonarol detected in plasma [7, 21]: 75.5 ± 2.38 ng/mL | Accuracy (detected/prepared × 100) [7, 22]: 101.7% | Zonarol detected in plasma [7, 22]: 325.5 ± 4.56 ng/mL | effect of three freeze–thaw cycles on quantification in plasma ([7]; three freeze–thaw cycles): no effect | concentration at 30 min ([8]; bolus i.v. 10 mg/kg BW, 30 min, read-out: maximal distribution of zonarol in the brain): 2520 ± 1330 ng/g | concentration at 30 min ([8]; i.v. 10 mg/kg, 30 min after administration, n = 7, mean ± SD, read-out: zonarol content in brain (peak)): 2530 ± 1330 ng/g | concentration at 15 min ([8]; kidney, i.v. 10 mg/kg, n = 7, mean ± SD, read-out: zonarol content in kidney (highest)): 1910 ± 1800 ng/g | concentration at 15 min ([8]; liver, i.v. 10 mg/kg, n = 7, mean ± SD, read-out: zonarol content in liver (highest)): 1320 ± 1040 ng/g
Molecule: C=C1CC[C@@H]2C(C)(C)CCC[C@@]2(C)[C@@H]1Cc1cc(O)ccc1O [zonarol]
effect on carrageenan-induced paw edema [3]: significantly suppressed | effect on diet-induced NAFLD [4]: prevented | effect on DSS-induced ulcerative colitis [5]: suppressed | tissue/body weights (g/g) and visual observation of each tissue vs. mice without bolus treatment ([8]; i.v. 10 mg/kg bolus, data not shown): did not reflect any marked differences | plasma zonarol required to induce suppressive effects on edema formations [9]: approximately 300 ng/mL
